From patent US9593305B2, “Differentiation of pluripotent stem cells” (Janssen Biotech, Inc., priority 2008, dated 2017)

Tested on: H1 human embryonic stem cells
Experiment: Primary screening: definitive endoderm differentiation in the absence of activin A, cell number and SOX17 (Example 3)
Type: cell-based
Details: for Cell Number, % of positive control / Sox17 Intensity % of positive control: Table 2 hit subset of primary screening, no activin A; for Cell Number, % of positive control / Sox17 Intensity % of positive control / SOX17 expression in the absence of activin A: 2.5 μM; for SOX17 expression in the absence of activin A: primary screening; for Cell Number: % of positive control / Sox17 Expression: % of positive control / Sox17 Expression: Average Total Intensity / Cell Number: Average Total Cell Number: 2.5 μM compound, 20 ng/ml Wnt3a days 1-2, no activin A, four-day assay; for Cell Number: Average Total Cell Number: positive control 100 ng/ml activin A + Wnt3a
Protocol: Briefly, clusters of H1 human embryonic stem cells were grown on reduced growth factor […]™ (Invitrogen; Cat #1356231)-coated tissue culture plastic. Cells were passaged using collagenase (Invitrogen; Cat #17104-019) treatment and gentle scraping, washed to remove residual enzyme, and plated with even dispersal at a ratio of 1:1 (surface area) on reduced growth factor […]™-coated 96-well black plates (Packard ViewPlates; PerkinElmer; Cat #6005182) using volumes of 100 μl/well. Cells were allowed to attach as clusters and then recover log phase growth over a 1 to 3 day period, feeding daily with MEF conditioned medium supplemented with 8 ng/ml bFGF (R&D Systems; Cat #233-FB). Plates were maintained at 37° C., 5% CO2 in a humidified box throughout the duration of assay.
The compounds tested were made available as 5 mM stocks in 96-well plate format, solubilized in 100% DMSO (Sigma; Cat #D2650) and stored at −80° C. The library compounds were further diluted to an intermediate concentration of 0.2 mM in 50 mM HEPES (Invitrogen; Cat #15630-080), 20% DMSO and stored at 4° C. Test conditions were performed in triplicate, feeding on alternate days over a four-day assay period. Primary screening assays were initiated by aspirating culture medium from each well followed by three washes in PBS (Invitrogen; Cat #14190) to remove residual growth factors and serum. On the first day of assay, test volumes of 200 μl per well were added back containing DMEM:F12 base medium (Invitrogen; Cat #11330-032) supplemented with 0.5% FCS (HyClone; Cat #SH30070.03) and 20 ng/ml Wnt3a (R&D Systems; Cat #1324-WN) plus 2.5 μM test compound. On the third day of assay, test volumes of 200 μl per well were added back containing DMEM:F12 base medium supplemented with 2% FCS plus 2.5 μM test compound, without Wnt3a. Positive control samples contained the same base medium supplemented with FCS, substituting 100 ng/ml recombinant human activin A (PeproTech; Cat #120-14) for the test compound throughout the four-day assay along with Wnt3a (20 ng/ml) added only on days 1 and 2. Negative control samples contained DMEM:F12 base medium supplemented with FCS, adding Wnt3a on days 1 and 2 but omitting activin A.
At the conclusion of four-days of culture, assay plates were washed twice with PBS (Invitrogen; Cat #14190), fixed with 4% paraformaldehyde (Alexis Biochemical; Cat #ALX-350-011) at room temperature for 20 minutes, then washed three times with PBS and permeabilized with 0.5% Triton X-100 (Sigma; Cat #T8760-2) for 20 minutes at room temperature. Cells were washed again three times with PBS and blocked with 4% chicken serum (Invitrogen; Cat #16110082) in PBS for 30 minutes at room temperature. Primary antibody (goat anti-human SOX17; R&D Systems; Cat #AF1924) was diluted 1:100 in 4% chicken serum and added to each well for one hour at room temperature. Alexa Fluor 488 conjugated secondary antibody (chicken anti-goat IgG; Molecular Probes; Cat #AZ1467) was diluted 1:200 in PBS and added to each sample well after washing three times with PBS. To counter stain nuclei, 4 μg/ml Hoechst 33342 (Invitrogen; Cat #H3570) was added for ten minutes at room temperature. Plates were washed once with PBS and left in 100 μl/well PBS for imaging.
Imaging was performed using an IN Cell Analyzer 1000 (GE Healthcare) utilizing the 51008bs dichroic for cells stained with Hoechst 33342 and Alexa Fluor 488. Exposure times were optimized from positive control wells and from untreated negative control wells stained with secondary antibody alone. Images from 15 fields per well were acquired to compensate for any cell loss during the bioassay and subsequent staining procedures. Measurements for total cell number and total SOX17 intensity were obtained from each well using IN Cell Developer Toolbox 1.7 (GE Healthcare) software. Segmentation for the nuclei was determined based on gray-scale levels (baseline range 100-300) and nuclear size. […]

Row | SMILES | Cell Number, % of positive control | Sox17 Intensity % of positive control | SOX17 expression in the absence of activin A | Cell Number: % of positive control | Sox17 Expression: % of positive control | Sox17 Expression: Average Total Intensity | Cell Number: Average Total Cell Number
1 | O=C1CCN2CCN(CC2)Cc2cc(Cl)cc(c2)Nc2ncnc(n2)-c2cncc(c2)CCCN1 [Compound 34, 5-Chloro-1,8,10,12,16,22,26,32-octaazapentacyclo[24.2.2.1˜3.7˜0.1˜9,13˜0.1˜14.18˜]tritriaconta-3(33), 4,6,9(32), 10,12,14(31), 15,17-nonaen-23-one] | 114.8 % of positive control | 44.5 % of positive control |  |  |  |  | 
2 | O=C1NCCCc2cncc(c2)-c2ncnc(n2)Nc2cccc(c2)CN2CCC1CC2 [Compound 22, 1,8,10,12,16,22,30-Heptaazapentacyclo[22.2.2.1-3,7˜0.1˜9,13˜1-14,18˜]hentriaconta-3(31), 4,6,9(30), 10,12,14(29), 15,17-nonaen-23-one] | 132.7 % of positive control | 72.4 % of positive control | SOX17 expression was induced |  |  |  | 
3 | CN1CCC(=O)NCCCNc2cccc(c2)-c2ncnc(n2)Nc2cccc(c2)C1 [Compound 21, 14-Methyl-3,5,7,14,18,22,29-heptaazatetracyclo[21.3.1.1˜2,6˜0.1˜8,12˜]nonacosa-1(27), 2(29), 3,5,8(28), 9,11,23,25-nonaen-17-one] |  |  |  | 44.44 % of positive control | −0.61 % of positive control | −1.96E+06 | 4719
4 | CCN1CCCc2cccc(c2)-c2ncnc(n2)Nc2cccc(c2)CCNC(=O)C1 [Compound 29, 18-Ethyl-3,5,7,15,18,28-hexaazatetracyclo[20.3.1.1˜2,6˜0.1˜8,12˜]octacosa-1(26), 2(28), 3,5,8(27), 9,11,22,24-nonaen-16-one] | 136.0 % of positive control | 34.5 % of positive control |  |  |  |  | 
5 | O=C1NCCCc2cncc(c2)-c2ncnc(n2)Nc2cccc(c2)CN2CCCC1C2 (stereo not shown) [Compound 17, 3,5,7,14,20,26,31-Heptaazapentacyclo[22.3.1.1-2,6˜1˜8,12˜1˜14,18˜]hentriaconta-1(28), 2(31), 3,5,8(30), 9,11,24,26-nonaen-19-one] | 133.8 % of positive control | −0.7 % of positive control |  |  |  |  | 
6 | CN1CCC(=O)NCCCNc2ncccc2-c2ncnc(n2)Nc2cccc(c2)C1 [Compound 39, 9-Methyl-2,3,4,5,7,8,9,10-octahydro-16H-17,21-(azeno)-11,15-(metheno)pyrido[3,2-g][1,3,5,9,13,17]hexaazacyclotricosin-6(1H)-one] | 147.0 % of positive control | 35.2 % of positive control |  |  |  |  | 
7 | O=C1NCCCc2cncc(c2)-c2ncnc(n2)Nc2cc(Cl)cc(c2)CN2CCCC1C2 (stereo not shown) [Compound 37, 10-Chloro-3,5,7,14,20,26,31-heptaazapentacyclo[22.3.1.1˜2,6˜0.1˜8,12˜0.1˜14,18˜]hentriaconta-1(28), 2(31), 3,5,8(30), 9,11,24,26-nonaen-19-one] | 129.3 % of positive control | 29.1 % of positive control |  |  |  |  | 
8 | O=C1CCN2CCN(CC2)Cc2cccc(c2)Nc2ncnc(n2)-c2cncc(c2)CCCN1 [Compound 23, 1,8,10,12,16,22,26,32-Octaazapentacyclo[24.2.2.1-3,7˜0.1˜9,13˜0.1˜14,18˜]tritriaconta-3(33), 4,6,9(32), 10,12,14(31), 15,17-nonaen-23-one] |  |  |  | 24.13 % of positive control | −0.48 % of positive control | −1.56E+06 | 2563
9 | CCN1CC(=O)NCCCc2cncc(c2)-c2ncnc(n2)Nc2cc(Cl)cc(c2)C1 [Compound 35, 10-Chloro-14-ethyl-3,5,7,14,17,23,27-heptaazatetracyclo[19.3.1.1˜2,6˜0.1˜8,12]Theptacosa-1(25), 2(27), 3,5,8(26), 9,11,21,23-nonaen-16-one] | 158.7 % of positive control | 86.8 % of positive control | SOX17 expression was induced |  |  |  | 
10 | CCN1CC(=O)NCCCc2cc(ccc2F)-c2ncnc(n2)Nc2cc(Cl)cc(c2)C1 [Compound 25, 10-Chloro-14-ethyl-22-fluoro-3,5,7,14,17,27-hexaazatetracyclo[19.3.1.1˜2,6˜0.1˜8,12˜]heptacosa-1(25), 2(27), 3,5,8(26), 9,11,21,23-nonaen-16-one] |  |  |  | 146.17 % of positive control | 20.32 % of positive control | 4.03E+07 | 4151
